Results from patent publication EP0726261A1, “Herbidical 1,2,4 thiadiazoles” (American Cyanamid Company, priority 1995, dated 1996).

Columns and labels:
Format in all cases: in vivo
[1] = test system: Glycine max; assay: Herbicidal activity, postemergence test (Example 66); details: post; 1000 g/ha; assessed visually twenty days after spraying
Method in brief: (§1)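 Visual 0-9 score (0 = growth as untreated control, 9 = death; one unit ≈ 11% more effect) taken twenty days post-spray. Compound was applied at 1000 g a.i./ha in 900 L/ha water, diluted from acetone containing 0.4% Triton X-155, to sown soil (pre) or seedlings (post).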

[2] = test system: Glycine max; assay: Herbicidal activity, preemergence test (Example 66); design: key: A rating of 0 indicates growth as untreated control; a rating of 9 indicates death; details: pre; 1000 g/ha; assessed visually twenty days after spraying
Method in brief: as §1

[3] = test system: Avena fatua; assay: as above; design: key: A rating of 0 indicates growth as untreated control; a rating of 9 indicates death; details: pre; 1000 g/ha; assessed visually twenty days after spraying
Method in brief: as §1

[4] = test system: Beta vulgaris; assay: as above; design: key: A rating of 0 indicates growth as untreated control; a rating of 9 indicates death; details: pre; 1000 g/ha; assessed visually twenty days after spraying
Method in brief: as §1

[5] = test system: Linum usitatissimum; assay: as above; design: key: A rating of 0 indicates growth as untreated control; a rating of 9 indicates death; details: pre; 1000 g/ha; assessed visually twenty days after spraying
Method in brief: as §1

[6] = test system: Sinapsis alba; assay: as above; design: key: A rating of 0 indicates growth as untreated control; a rating of 9 indicates death; details: pre; 1000 g/ha; assessed visually twenty days after spraying
Method in brief: as §1

[7] = test system: Zea mays; assay: as above; design: key: A rating of 0 indicates growth as untreated control; a rating of 9 indicates death; details: pre; 1000 g/ha; assessed visually twenty days after spraying
Method in brief: as §1

[8] = test system: Echinochloa crus-galli; assay: as above; design: key: A rating of 0 indicates growth as untreated control; a rating of 9 indicates death; details: pre; 1000 g/ha; assessed visually twenty days after spraying
Method in brief: as §1

[9] = test system: Oryza sativa; assay: as above; design: key: A rating of 0 indicates growth as untreated control; a rating of 9 indicates death; details: pre; 1000 g/ha; assessed visually twenty days after spraying
Method in brief: as §1

[10] = test system: Avena fatua; assay: Herbicidal activity, postemergence test (Example 66); design: key: A rating of 0 indicates growth as untreated control; a rating of 9 indicates death; details: post; 1000 g/ha; assessed visually twenty days after spraying
Method in brief: as §1

[11] = test system: Beta vulgaris; assay: as above; design: key: A rating of 0 indicates growth as untreated control; a rating of 9 indicates death; details: post; 1000 g/ha; assessed visually twenty days after spraying
Method in brief: as §1

[12] = test system: Linum usitatissimum; assay: as above; design: key: A rating of 0 indicates growth as untreated control; a rating of 9 indicates death; details: post; 1000 g/ha; assessed visually twenty days after spraying
Method in brief: as §1

[13] = test system: Sinapsis alba; assay: as above; design: key: A rating of 0 indicates growth as untreated control; a rating of 9 indicates death; details: post; 1000 g/ha; assessed visually twenty days after spraying
Method in brief: as §1

[14] = test system: Zea mays; assay: as above; design: key: A rating of 0 indicates growth as untreated control; a rating of 9 indicates death; details: post; 1000 g/ha; assessed visually twenty days after spraying
Method in brief: as §1

[15] = test system: Echinochloa crus-galli; assay: as above; design: key: A rating of 0 indicates growth as untreated control; a rating of 9 indicates death; details: post; 1000 g/ha; assessed visually twenty days after spraying
Method in brief: as §1

[16] = test system: Oryza sativa; assay: as above; design: key: A rating of 0 indicates growth as untreated control; a rating of 9 indicates death; details: post; 1000 g/ha; assessed visually twenty days after spraying
Method in brief: as §1

O=C(NCc1ccccc1)c1nc(-c2ccc(F)cc2)ns1 [Example 20]
herbicidal effects on a 0-9 scale, GLXMA [1]: 6 | herbicidal effects on a 0-9 scale, GLXMA [2]: 0 | herbicidal effects on a 0-9 scale, AVEFA [3]: 0 | herbicidal effects on a 0-9 scale, BEAVA [4]: 0 | herbicidal effects on a 0-9 scale, LIUUT [5]: 0 | herbicidal effects on a 0-9 scale, SINAL [6]: 0 | herbicidal effects on a 0-9 scale, ZEAMX [7]: 0 | herbicidal effects on a 0-9 scale, ECHCG [8]: 0 | herbicidal effects on a 0-9 scale, ORYSA [9]: 0 | herbicidal effects on a 0-9 scale, AVEFA [10]: 0 | herbicidal effects on a 0-9 scale, BEAVA [11]: 9 | herbicidal effects on a 0-9 scale, LIUUT [12]: 6 | herbicidal effects on a 0-9 scale, SINAL [13]: 9 | herbicidal effects on a 0-9 scale, ZEAMX [14]: 0 | herbicidal effects on a 0-9 scale, ECHCG [15]: 2 | herbicidal effects on a 0-9 scale, ORYSA [16]: 0

C[C@H](NC(=O)c1nsc(-c2ccc(Cl)cc2)n1)c1ccccc1 [Example 24]
herbicidal effects on a 0-9 scale, GLXMA [1]: 5 | herbicidal effects on a 0-9 scale, GLXMA [2]: 0 | herbicidal effects on a 0-9 scale, AVEFA [3]: 0 | herbicidal effects on a 0-9 scale, BEAVA [4]: 0 | herbicidal effects on a 0-9 scale, LIUUT [5]: 0 | herbicidal effects on a 0-9 scale, SINAL [6]: 0 | herbicidal effects on a 0-9 scale, ZEAMX [7]: 0 | herbicidal effects on a 0-9 scale, ECHCG [8]: 0 | herbicidal effects on a 0-9 scale, ORYSA [9]: 0 | herbicidal effects on a 0-9 scale, AVEFA [10]: 0 | herbicidal effects on a 0-9 scale, BEAVA [11]: 8 | herbicidal effects on a 0-9 scale, LIUUT [12]: 5 | herbicidal effects on a 0-9 scale, SINAL [13]: 8 | herbicidal effects on a 0-9 scale, ZEAMX [14]: 0 | herbicidal effects on a 0-9 scale, ECHCG [15]: 2 | herbicidal effects on a 0-9 scale, ORYSA [16]: 0
